Experimental data from patent US10611764B2 (Wisconsin Alumni Research Foundation, priority 2017, dated 2020).
Changes are numbered by the printed parent chain. Read-outs that look alike come from different tables or passages of the source.

Tests used:
MH1C1 rat hepatoma cells = MH1C1 rat hepatoma cells exposed for three hours; cited from earlier work
[1] = biological target: T1, mouse AHR (mAHR B1-allele) (Mus musculus, UniProt P30561, M589L/N533S/P471L); assay: cell-based; conditions: for biological response, eight-hour versus four-hour induction: 8 h vs 4 h
T1 sequence (P30561 10-805 P471L/N533S/M589L): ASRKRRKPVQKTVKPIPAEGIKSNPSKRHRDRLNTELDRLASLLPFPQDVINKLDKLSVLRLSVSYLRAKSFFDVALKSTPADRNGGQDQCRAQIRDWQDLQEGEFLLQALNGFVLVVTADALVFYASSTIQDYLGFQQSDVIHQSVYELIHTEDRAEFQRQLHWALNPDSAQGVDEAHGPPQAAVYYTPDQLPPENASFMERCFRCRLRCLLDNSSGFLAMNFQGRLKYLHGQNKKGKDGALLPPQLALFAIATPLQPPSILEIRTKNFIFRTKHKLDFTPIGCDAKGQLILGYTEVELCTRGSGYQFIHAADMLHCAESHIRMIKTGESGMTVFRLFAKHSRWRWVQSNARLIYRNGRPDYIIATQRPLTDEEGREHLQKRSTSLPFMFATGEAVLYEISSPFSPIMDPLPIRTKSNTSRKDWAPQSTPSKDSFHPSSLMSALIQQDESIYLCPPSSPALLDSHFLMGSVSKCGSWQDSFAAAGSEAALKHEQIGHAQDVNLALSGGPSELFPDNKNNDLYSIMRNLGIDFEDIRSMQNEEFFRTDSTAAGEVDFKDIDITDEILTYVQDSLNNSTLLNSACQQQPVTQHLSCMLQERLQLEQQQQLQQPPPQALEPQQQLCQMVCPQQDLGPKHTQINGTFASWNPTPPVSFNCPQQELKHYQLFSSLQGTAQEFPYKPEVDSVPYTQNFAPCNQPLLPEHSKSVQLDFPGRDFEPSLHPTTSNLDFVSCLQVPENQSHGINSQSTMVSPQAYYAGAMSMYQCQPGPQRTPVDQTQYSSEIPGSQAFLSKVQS
Experimental: The wild type and mutant mAHR were cloned into the XhoI/SalI cloning sites of pTARGET (Promega, Madison, Wis.) using routine PCR and molecular cloning procedures using the pSport-mAHR plasmid (PL65) as template (Dolwick, Swanson et al. 1993). For recombinant expression of mAHR, COS-1 cells were cultured in 6 cm dishes and transfected with 2 μg of wild-type or mutant mAHR expression vector. Twenty-four hours after transfection, cells were collected, and the whole cell extracts were prepared by celLytic M reagent (Sigma-Aldrich, St Louis, Mo.). 100 μg of whole cell extract was analyzed by western blot using antibodies that specifically recognize the mAHR (bear-2) and β-actin (Sigma).
COS-1 cells were cultured in 96-well plates and transiently transfected with pTarget vector containing the expression cassette of wild-type or mutant mAHR, or empty vector (3 ng), together with pGudLu6.1 DREs-driven luciferase reporter vector (14 ng) (Han, Nagy et al. 2004) and TK-renilla luciferase vector (3 ng) (Invitrogen, Carlsbad Calif.). […] The expressed luciferase activity was measured by ENSPIRE plate reader (Perkin Elmer, USA). Data analysis and simulation of dose response curves were performed using GraphPad Prism 5 (GraphPad software Inc., La Jolla, Calif.). The experiments were performed in triplicate and repeated at least three times. Representative results of one repeat are shown as mean±SEM.

mAHR H285A mutant = assay: Luciferase reporter gene assay, mutant mAHR H285A in COS-1 cells; assay type: cell-based, mouse; conditions: relative to WT mAHR
AHR = biological target: T2, AHR (Rattus norvegicus, UniProt P41738); conditions: Rannug, Rannug et al. 1987; cited from earlier work
T2 sequence (P41738 10-853): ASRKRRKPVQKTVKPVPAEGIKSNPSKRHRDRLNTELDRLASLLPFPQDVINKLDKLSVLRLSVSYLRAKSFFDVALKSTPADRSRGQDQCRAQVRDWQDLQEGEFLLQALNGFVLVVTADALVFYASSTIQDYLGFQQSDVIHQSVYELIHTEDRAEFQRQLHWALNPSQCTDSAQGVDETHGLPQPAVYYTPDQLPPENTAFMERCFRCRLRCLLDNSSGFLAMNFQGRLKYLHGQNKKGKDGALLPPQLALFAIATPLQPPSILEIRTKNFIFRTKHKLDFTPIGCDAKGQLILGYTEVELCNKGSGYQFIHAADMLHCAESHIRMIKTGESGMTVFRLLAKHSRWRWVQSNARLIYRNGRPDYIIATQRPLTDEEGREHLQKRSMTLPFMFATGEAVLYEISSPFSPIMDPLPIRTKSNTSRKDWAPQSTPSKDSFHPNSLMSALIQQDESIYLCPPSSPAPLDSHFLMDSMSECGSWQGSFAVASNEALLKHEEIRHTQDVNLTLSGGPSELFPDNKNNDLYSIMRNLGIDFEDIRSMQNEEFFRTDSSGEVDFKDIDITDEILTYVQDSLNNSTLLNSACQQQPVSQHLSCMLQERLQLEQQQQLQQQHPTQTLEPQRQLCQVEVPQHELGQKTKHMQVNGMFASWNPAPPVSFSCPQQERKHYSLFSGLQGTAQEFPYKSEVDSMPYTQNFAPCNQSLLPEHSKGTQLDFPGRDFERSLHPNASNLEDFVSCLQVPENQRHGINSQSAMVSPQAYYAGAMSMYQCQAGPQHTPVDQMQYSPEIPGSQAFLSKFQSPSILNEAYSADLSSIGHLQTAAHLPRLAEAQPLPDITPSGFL

[2] = biological target: T3, mAHR genetic variant A375V (D-allele) (Mus musculus, UniProt P30561, A375V/F348L/M589L/N533S/P471L); assay: Luciferase reporter gene assay, mAHR genetic variant A375V (D-allele); assay type: cell-based; conditions: compared with B-allele
T3 construct: expressed in transfected cells; host or cells: COS-1
T3 sequence (P30561 10-805 F348L/A375V/P471L/N533S/M589L): T1 sequence (P30561 10-805 P471L/N533S/M589L) with F339L, A366V
Text: Physiological relevant ligands of the AHR would be expected to activate polymorphic receptors within species and structurally variant receptors across species. As a model of this idea an important endogenous AHR ligands would be expected to activate AHR genetic variants arising from the murine Ahr B1 and D alleles. These two well-known genetic variants, harbor a key sequence variation at residue 375, with alanine in the B1 allele, and valine in the D allele (A375V). Residue 375 is located near the medial position of the AHR-LBD. […] These observations support the notion that AHR genetic variants might function through these endogenous ligands to control normal physiological functions.

[3] = tested on: A375V variant of AHR (D allele); conditions: Chang 1993, Ema 1994, Poland 1994; cited from earlier work
[4] = tested on: mutant AHR, F289K, F281K, I373K, and L347R; assay: Luciferase reporter gene assay, mAHR hydrophobic pocket mutants in COS-1 cells; assay type: cell-based, mouse
mAHR Q377A mutant = biological target: T4, mAHR Q377A mutant (Mus musculus, UniProt P30561, Q377A); assay: Luciferase reporter gene assay, mutant mAHR Q377A in COS-1 cells; assay type: cell-based; conditions: relative to WT mAHR
T4 construct: expressed in transfected cells; host or cells: COS-1
T4 sequence (P30561 10-805 Q377A limits assumed): T1 sequence (P30561 10-805 P471L/N533S/M589L) with Q368A, L462P, S524N, L580M

## 6-formylindolo [3,2-b] carbazole [FICZ]
MH1C1 rat hepatoma cells
  EC50: 0.034 nM
[1]; COS-1 cells
  biological response, eight-hour versus four-hour induction: slightly reduced
[1]; COS-1 cells, 20 h vs 8 h and 4 h
  activity in the 20-hour induction: further reduced
[1]; read-out: EC50 of AHR activation, COS-1 cells expressing mAHR, luciferase reporter, 4 hours
  EC50: 0.036 nM
mAHR H285A mutant
  effect of H285A mutation on AHR induction activity: remains partially receptive
AHR
  Kd: 0.07 nM

## O=c1cc[nH]c2ccccc12 [4(1H)-Quinolinone (4-HQ), 4(1H)-Quinolinone]
[1]; known chemical derivatives of kynurenine, FIG. 10b
  activity in AHR induction (in words): did not show any activity

## c1ccc2c(c1)NC1=C3C2=NCC[C@H]3c2ccccc2N1 [274 ion fraction]
[1]
  AC50: ~5 nM

## c1ccc2c(c1)cc1ccc3cccc4ccc2c1c34 [BaP, benzo[a]pyrene]
[2]
  activation of the A375V D-allele: barely stimulate

## Clc1cc2c(cc1Cl)Oc1cc(Cl)c(Cl)cc1O2 [TCDD, 2,3,7,8-tetrachlorodibenzo-p-dioxin]
[3]
  binding to the A375V variant: weakened binding

## Nc1ccccc1C(=O)CC(N)C(=O)O (centres unmarked) [kynurenine (3 d, 6 m)]
[1]
  EC50: 2.7 nM

## Nc1ccccc1C(=O)CC(N)C(=O)O (centres unmarked) [kynurenine]
[2]
  activation of the A375V D-allele: readily activate
[1]
  fold increase of activity by incubation or long-term storage: 100-1000 fold
[1]; COS-1 cells
  biological response, eight-hour versus four-hour induction: higher biological response
[1]; EC50 of AHR activation, COS-1 cells expressing mAHR, luciferase reporter, 4 hours
  EC50: ~13000 nM
[1]; after 18 days at room temperature
  fold increase of AHR induction by incubation: ~100 fold
[1]; after three days at 37° C.
  fold increase of AHR induction by incubation: ~100 fold
[1]; relative to BaP, FIG. 2A
  maximum activity, higher than BaP: 60%
[1]; relative to FICZ, FIG. 1A
  maximum AHR activation, higher than that induced by FICZ: ~40%
mAHR H285A mutant
  effect of H285A mutation on AHR induction activity: completely disrupts
[4]; F289K, F281K
  effect of F289K and F281K mutations on responsiveness of AHR: completely abolished
[4]; I373K, L347R, FIG. 1c
  effect of mutation of other hydrophobic residues to lysine or arginine on activity: completely abolished
mAHR Q377A mutant
  effect of Q377A mutation on AHR induction activity: barely affected
